In patent publication US12503482B2, “Compositions and methods for trehalose phospholipids” (The Brigham and Women's Hospital, Inc., priority 2019, dated 2025):
Numbering of substitutions follows the chain as printed. Read-outs that look alike come from different tables or passages of the source.

Legend:
Format in all cases: cell-based
murine Mincle = target: T1, murine Mincle (Mus musculus, UniProt Q9R0Q8); assay: Mincle activation assay, murine Mincle-FcRγ GFP reporter cell line with plate-coated lipids
T1 construct: expressed in transfected cells; host or cells: 2B4-NFAT-GFP cells
T1 sequence (Q9R0Q8 1-214): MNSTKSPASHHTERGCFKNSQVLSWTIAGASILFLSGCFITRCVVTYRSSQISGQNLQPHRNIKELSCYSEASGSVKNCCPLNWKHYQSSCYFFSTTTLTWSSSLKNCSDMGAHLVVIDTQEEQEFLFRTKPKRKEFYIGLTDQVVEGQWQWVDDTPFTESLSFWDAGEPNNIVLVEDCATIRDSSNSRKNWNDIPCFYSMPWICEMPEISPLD
T1 sequence (P20491 19-86 partner): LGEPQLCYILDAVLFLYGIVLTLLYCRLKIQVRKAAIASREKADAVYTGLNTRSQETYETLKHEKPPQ

human Mincle = target: T2, human Mincle (Homo sapiens, UniProt Q9ULY5); assay: Mincle activation assay, human Mincle-FcRγ GFP reporter cell line with plate-coated lipids; conditions: FIG. 3D
T2 construct: expressed in transfected cells; host or cells: 2B4-NFAT-GFP cells
T2 sequence (Q9ULY5 1-219): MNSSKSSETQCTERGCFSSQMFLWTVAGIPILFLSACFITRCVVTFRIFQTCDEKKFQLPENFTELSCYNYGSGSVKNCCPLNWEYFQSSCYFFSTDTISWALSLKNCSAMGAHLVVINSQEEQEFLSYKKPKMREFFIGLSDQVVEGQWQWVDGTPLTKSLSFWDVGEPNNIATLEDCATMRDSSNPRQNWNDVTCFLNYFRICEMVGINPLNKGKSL
T2 sequence (P30273 19-86 partner): T1 sequence (P20491 19-86 partner) with V13I, A38T, R40Y, A43S, A45G, N51S, S54N

FcRγ = assay: Negative control reporter cell line expressing FcRγ only; conditions: FIG. 3D

Molecule | amount of coated lipid at which reporter cells respond (GFP expression) (murine Mincle) [ng] | relative sensitivity of murine Mincle to diPT versus TDM (murine Mincle; FIG. 3D) | activation of murine Mincle reporter cell line (murine Mincle; comparison of murine and human reporter lines, FIG. 3D) | amount of coated lipid at which reporter cells respond (GFP expression) (murine Mincle; murine Mincle-FcRγ reporter cell line, plate-coated lipid, FIG. 3C) [ng] | relative sensitivity of human Mincle to diPT versus TDM (human Mincle) | activation of human Mincle reporter cell line (human Mincle; comparison of murine and human reporter lines) | activation of negative control cell line expressing FcRγ only (FcRγ)
6,6′-diphosphatidyltrehalose [natural diPT] | 5 | – | – | – | – | – | –
CCCCCCCCCCCCCCCC(=O)OC[C@H](COP(=O)(O)OCC1OC(OC2OC(COP(=O)(O)OC[C@@H](COC(=O)CCCCCCCCCCCCCCC)OC(=O)CCCCCCC[C@H]3C[C@H]3CCCCCC)C(O)C(O)C2O)C(O)C(O)C1O)OC(=O)CCCCCCC[C@H]1C[C@H]1CCCCCC (some centres unmarked) [synthetic diPT, 6,6′-diphosphatidyltrehalose] | – | the opposite is true | activation present at nanogram levels | 20 | marginally more sensitive to diPT than to TDM | activation present at nanogram levels | failed to activate
trehalose dimycolate [TDM, reference compound] | 5 | – | – | – | – | – | –
